These are literature values, as cited in US6680306B2, “Method for enhancing the effectiveness of cancer therapies” (GlycoGenesys, Inc., priority 2001, dated 2004).

Molecules are shown by their SMILES.

One data set relates to BT549 cells. The note with it: BT549 human breast epithelial cell line that does not express detectable levels of galectin-3.
Data set [1] has as its system galectin-3 transfected BT549 cells. The note with it: galectin-3 transfected BT549 cells treated with genistein.

Turning to `O=c1c(-c2ccc(O)cc2)coc2cc(O)cc(O)c12` [genistein], the apoptosis induction entry with BT549 cells is on record as “effectively induces apoptosis, without detectable cell cycle arrest”. Also, the “cell cycle arrest / apoptosis induction” value in data set [1] is “cell cycle arrest at the G(2)/M phase takes place without apoptosis induction”.
